In PubChem BioAssay AID1918944 (Molecular Pharmacology Branch, DTP, NCI, 2023):
Several values for one entry are separate records, joined by “and”; a condition that tells them apart may be missing. Equal entries are not always repeated.

System: 786-0 complex spheroid viability
Assay: Anticancer human tumor 786-0 cell line growth inhibition;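 also: spheroids exposed to agents for seven days before readout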
Details: for viability, T/C: stronger effect = lower value
In short: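 Multicellular complex spheroids of tumor cells with human endothelial cells (HUVEC) and mesenchymal stem cells; the LSD1 inhibitor iadademstat was combined with standard-of-care or investigational agents. Top concentration at or near clinical Cmax, half-log dilutions; final DMSO ≤0.25%.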

[1] = curve of first compound, second compound 0.1 µM
[2] = curve of first compound, second compound 0.316 µM
[3] = curve of first compound, second compound 1 µM
[4] = curve of first compound, second compound 3.16 µM
[5] = curve of first compound, second compound 10 µM
[6] = second compound 0.1 µM, first compound 0.00316 µM
[7] = second compound 0.1 µM, first compound 0.01 µM
[8] = second compound 0.1 µM, first compound 0.0316 µM
[9] = second compound 0.1 µM, first compound 0.1 µM
[10] = second compound 0.316 µM, first compound 0.00316 µM
[11] = second compound 0.316 µM, first compound 0.01 µM
[12] = second compound 0.316 µM, first compound 0.0316 µM
[13] = second compound 0.316 µM, first compound 0.1 µM
[14] = second compound 1 µM, first compound 0.00316 µM
[15] = second compound 1 µM, first compound 0.01 µM
[16] = second compound 1 µM, first compound 0.0316 µM
[17] = second compound 1 µM, first compound 0.1 µM
[18] = second compound 3.16 µM, first compound 0.00316 µM
[19] = second compound 3.16 µM, first compound 0.01 µM
[20] = second compound 3.16 µM, first compound 0.0316 µM
[21] = second compound 3.16 µM, first compound 0.1 µM
[22] = second compound 10 µM, first compound 0.00316 µM
[23] = second compound 10 µM, first compound 0.01 µM
[24] = second compound 10 µM, first compound 0.0316 µM
[25] = second compound 10 µM, first compound 0.1 µM

With `CC(C)CC(NC(=O)C(Cc1ccccc1)NC(=O)c1cnccn1)B(O)O` (stereo not drawn) the viability, T/C (compound 0.000316 µM) was 100% and 106%, the viability, T/C (compound 0.001 µM) was 107% and 108% and the viability, T/C (compound 0.00316 µM) was 32.1% and 53.2%. For the same compound, the viability, T/C (compound 0.01 µM) was 2.29% and 6.77%, the viability, T/C (compound 0.0316 µM) was 0.17% and 1.21% and the viability, T/C (compound 0.1 µM) was 0.2% and 0.37%. For the same compound, the IC50 (curve of compound) was 2.38 nM and 3.45 nM.

For `COc1cc(Nc2ncc3c(n2)-c2ccc(Cl)cc2C(c2c(F)cccc2OC)=NC3)ccc1C(=O)O`, the viability, T/C (compound 0.00316 µM) was 109% and 97.4%, the viability, T/C (compound 0.01 µM) was 90.9% and 98.9% and the viability, T/C (compound 0.0316 µM) was 67.5% and 84.2%. The viability, T/C (compound 0.1 µM) was 66.5% and 68.7%, the viability, T/C (compound 0.316 µM) was 54.4% and 56% and the viability, T/C (compound 1 µM) was 37.1% and 44.9%. The IC50 (curve of compound) was 329 nM and 565 nM.

Work on `Nc1ncn(C2CC(O)C(CO)O2)c(=O)n1` (stereo not drawn) + NC1CC1c1ccc(-c2cccc(O)c2)cc1 yielded an IC50 [1] of over 1000 nM, an IC50 [2] of over 1000 nM and an IC50 [3] of over 1000 nM. The IC50 [4] was over 1000 nM, the IC50 [5] was over 1000 nM and the viability, T/C [6] was 119%. It also gave a viability, T/C [7] of 122%, a viability, T/C [8] of 107% and a viability, T/C [9] of 97%. It also gave a viability, T/C (second compound 0.1 µM, first compound 0.316 µM) of 99.1%, a viability, T/C (second compound 0.1 µM, first compound 1 µM) of 78.4% and a viability, T/C [10] of 125%. The viability, T/C [11] was 113%, the viability, T/C [12] was 107% and the viability, T/C [13] was 96.5%. It also gave a viability, T/C (second compound 0.316 µM, first compound 0.316 µM) of 88.8%, a viability, T/C (second compound 0.316 µM, first compound 1 µM) of 82.3% and a viability, T/C [14] of 122%. For the same compound, the viability, T/C [15] was 119%, the viability, T/C [16] was 107% and the viability, T/C [17] was 96.1%. The viability, T/C (second compound 1 µM, first compound 0.316 µM) was 90.9%, the viability, T/C (second compound 1 µM, first compound 1 µM) was 82.5% and the viability, T/C [18] was 113%. The viability, T/C [19] was 115%, the viability, T/C [20] was 95.7% and the viability, T/C [21] was 94.8%. For the same compound, the viability, T/C (second compound 3.16 µM, first compound 0.316 µM) was 84%, the viability, T/C (second compound 3.16 µM, first compound 1 µM) was 75.6% and the viability, T/C [22] was 108%. For the same compound, the viability, T/C [23] was 102%, the viability, T/C [24] was 97.1% and the viability, T/C [25] was 93%. For the same compound, the viability, T/C (second compound 10 µM, first compound 0.316 µM) was 78.3% and the viability, T/C (second compound 10 µM, first compound 1 µM) was 72.9%.

Work on `CC[C@@]1(O)C(=O)OCc2c1cc1n(c2=O)Cc2cc3c(CN(C)C)c(O)ccc3nc2-1` + NC1CCC(NC2CC2c2ccccc2)CC1 yielded an IC50 [1] of 5.11 nM, an IC50 [2] of 5.13 nM and an IC50 [3] of 5.2 nM. It also gave an IC50 [4] of 4.39 nM, an IC50 [5] of 3.01 nM and a viability, T/C (second compound 0.1 µM, first compound 0.000316 µM) of 114%. The viability, T/C (second compound 0.1 µM, first compound 0.001 µM) was 113%, the viability, T/C [6] was 77.3% and the viability, T/C [7] was 11.8%. It also gave a viability, T/C [8] of 5.31%, a viability, T/C [9] of 3.53% and a viability, T/C (second compound 0.316 µM, first compound 0.000316 µM) of 111%. It also gave a viability, T/C (second compound 0.316 µM, first compound 0.001 µM) of 105%, a viability, T/C [10] of 78.3% and a viability, T/C [11] of 10.8%. The viability, T/C [12] was 5.38%, the viability, T/C [13] was 3.62% and the viability, T/C (second compound 1 µM, first compound 0.000316 µM) was 115%. It also gave a viability, T/C (second compound 1 µM, first compound 0.001 µM) of 105%, a viability, T/C [14] of 80% and a viability, T/C [15] of 10.3%. For the same compound, the viability, T/C [16] was 5.66%, the viability, T/C [17] was 3.63% and the viability, T/C (second compound 3.16 µM, first compound 0.000316 µM) was 101%. It also gave a viability, T/C (second compound 3.16 µM, first compound 0.001 µM) of 95.2%, a viability, T/C [18] of 65.2% and a viability, T/C [19] of 12.4%. It also gave a viability, T/C [20] of 6.41%, a viability, T/C [21] of 2.85% and a viability, T/C (second compound 10 µM, first compound 0.000316 µM) of 84%. It also gave a viability, T/C (second compound 10 µM, first compound 0.001 µM) of 71.7%, a viability, T/C [22] of 50.3% and a viability, T/C [23] of 6.62%. It also gave a viability, T/C [24] of 5.01% and a viability, T/C [25] of 3.36%.

For `CC1COCCN1c1cc(C2(S(C)(=N)=O)CC2)nc(-c2ccnc3[nH]ccc23)n1` (stereo not drawn), the viability, T/C (compound 0.0316 µM) was 101% and 103%, the viability, T/C (compound 0.1 µM) was 99.8% and 99.9% and the viability, T/C (compound 0.316 µM) was 91.4% and 99%. The viability, T/C (compound 1 µM) was 46.4% and 56.3%, the viability, T/C (compound 3.16 µM) was 24.9% and 32.6% and the viability, T/C (compound 10 µM) was 12.3% and 18.9%. For the same compound, the IC50 (curve of compound) was 954 nM and 1380 nM.

For `Cn1ncnc1C1c2n[nH]c(=O)c3cc(F)cc(c23)NC1c1ccc(F)cc1` (stereo not drawn), the viability, T/C (compound 0.000316 µM) was 102% and 101%, the viability, T/C (compound 0.001 µM) was 108% and the viability, T/C (compound 0.00316 µM) was 98.2% and 97.5%. The viability, T/C (compound 0.01 µM) was 98.3% and 97.5%, the viability, T/C (compound 0.0316 µM) was 100% and 92.3% and the viability, T/C (compound 0.1 µM) was 97.7% and 89.8%. It also gave an IC50 (curve of compound) of over 100 nM.

`Nc1ccccc1NC(=O)c1ccc(CNC(=O)OCc2cccnc2)cc1` was tested, and the viability, T/C (compound 0.00949 µM) was 98.3% and 104%, the viability, T/C (compound 0.03 µM) was 103% and 113% and the viability, T/C (compound 0.0949 µM) was 102% and 108%. The viability, T/C (compound 0.3 µM) was 93.9% and 93.5%, the viability, T/C (compound 0.949 µM) was 68% and 73.5% and the viability, T/C (compound 3 µM) was 14.8% and 23%. The IC50 (curve of compound) was 1400 nM and 1610 nM.

For `NC1CC1c1ccc(-c2cccc(O)c2)cc1` (stereo not drawn), the viability, T/C (compound 0.316 µM) was 110% [middle of 25 runs], the viability, T/C (compound 10 µM) was 89.2% [middle of 25 runs] and the IC50 (compound alone, run of 12/07/2021) was over 10000 nM.
